# Source: patent US20050095663A1, “Process for screening fungitoxic compounds” (priority 2002, published 2005)
# Where two headings read alike, the source gives them in different places.
# Columns and labels:
# [1] = system: Saccharomyces cerevisiae (strain X2180-1A); experiment: Effect of fatty acids on fungitoxicity (growth inhibition, absorbance at 700 nm); type: cell-based; conditions: 22 h
# Experimental: (§1) Fifty ml of YPG culture medium (10 g yeast extract, 20 g peptone, and 20 g glucose per liter of water) in a 250 ml Erlenmeyer flask was inoculated with Saccharomyces cereviae (strain X2180-1A) to give an absorbance at 700 nm of 0.02. This culture was incubated for 18 h at 30° C. with shaking at 225 rpm. The cells were harvested by centrifugation, washed once with SD medium (6.7 g Bacto-yeast nitrogen base and 20 g glucose per liter of water), and suspended in SD medium to give an Absorbance at 700 nm of 0.04. Aliquots (5 ml) of cell suspension were distributed in 20 ml capacity glass vials. Treatments containing compound 1 or cerulenin received 25 μl of a solution of compound in dimethylsulfoxide (DMSO) at 240 ppm or 160 ppm, respectively. Control treatments without compound 1 or cerulenin received 25 ul DMSO. Treatments containing a fatty acid received 25 μl of a 2 mM solution of the fatty acid in a 1% solution of Triton X-100 providing a concentration of 10 μM. Treatments without fatty acid received 25 ul of 1% Triton X-100. All treatments were carried out in duplicate. Vials were incubated for 22 h at 30° C. with shaking at 225 rpm. Growth of the cells was then estimated by diluting the cells in each treatment 3-fold with SD medium and measuring the asorbance at 700 nm. The results in Table 3 show inhibition of growth expressed as a percentage of growth in DMSO controls containing Triton X-100 but lacking Compound 1, cerulenin or fatty acid.
# [2] = system: Candida albicans (American Type Culture Collection strain 10231); experiment: Control of Candida albicans infection in mice; type: in vivo; conditions: for % Survival: mortality over 10 days
# Experimental: Compound 1 (6-(4-chlorophenyl)-2-(2′-pentynyl)pyridazinone, described as compound 109 in European Patent Publication No. EP 478 195 A1) in 5% dimethylsulfoxide (DMSO) in saline solution was administered intraperitoneally 1 h before and at 4, 24, 48 and 72 h after intravenous inoculation with Candida albicans (American Type Culture Collection strain 10231). Ten mice were used for each treatment. Mortality was recorded over a period of 10 days.
# [3] = biological target: T1, Yeast Δ-9 fatty acid desaturase (Saccharomyces cerevisiae, UniProt P21147); experiment: Yeast microsomal Δ-9 fatty acid desaturase assay (14C-palmitoyl-CoA to palmitoleic acid); type: biochemical
# T1 construct: the resulting microsomal pellet suspended in 10 ml of ice-cold 0.1 M potassium phosphate buffer; endogenous in cells; host or cells: Saccharomyces cerevisiae ATCC strain 12341, microsomal fraction
# Experimental: The following method was used to prepare the microsomal Δ-9 fatty acid desaturase from yeast. Two 250 ml flasks containing 100 ml each of glucose-yeast extract medium (0.4% yeast extract and 2% glucose) were inoculated with Saccharomyces cerevisiae strain 12341 obtained from the American Type Culture Collection, and grown for 48 h at 30° C. with shaking at 250 rpm. The cells were used to inoculate a 4 liter flask containing 3.6 liters of medium. The cells were grown at 30° C. with gentle shaking at 90 rpm for 24 h. […]
# Delta-9 Fatty acid desaturase assays were performed by measuring the desaturation of ^14C-palmitoyl-CoA to palmitoleic acid using 0.5 ml reaction mixtures containing 0.1 M potassium phosphate buffer, pH 7.2, 1 mM NADH and 26 μM ^14C-palmitoyl-CoA (0.028 μCi per assay) in 13×100 mm glass culture tubes. […] The upper cyclohexane layer was removed and 100 μI analyzed by HPLC on a Supelcosil LC-18 column (25×4.6 mm) with methanol-water-phosphoric acid (90:9.9:0.1, by volume) as the mobile phase at a flow rate of 1 ml/min. A Packard A120 RAM detector was used to determine the amounts of radioactivity in the palmitic and palmitoleic acid fractions. The percent inhibition of desaturation was determined by comparing the production of palmitoleic acid in assays containing compound 1 with production in assays containing DMSO alone. […]
# [4] = biological target: T2, Rat liver Δ-9 fatty acid desaturase (Rattus norvegicus, UniProt P07308); experiment: Rat liver microsomal Δ-9 fatty acid desaturase assay (14C-palmitoyl-CoA to palmitoleic acid); type: biochemical
# T2 construct: The upper gelatinous layer is the microsomal fraction; from tissue; host or cells: liver of Sprague-Dawley rats (starved, then fed a fat-free diet), microsomal fraction
# T2 sequence (P07308 1-358): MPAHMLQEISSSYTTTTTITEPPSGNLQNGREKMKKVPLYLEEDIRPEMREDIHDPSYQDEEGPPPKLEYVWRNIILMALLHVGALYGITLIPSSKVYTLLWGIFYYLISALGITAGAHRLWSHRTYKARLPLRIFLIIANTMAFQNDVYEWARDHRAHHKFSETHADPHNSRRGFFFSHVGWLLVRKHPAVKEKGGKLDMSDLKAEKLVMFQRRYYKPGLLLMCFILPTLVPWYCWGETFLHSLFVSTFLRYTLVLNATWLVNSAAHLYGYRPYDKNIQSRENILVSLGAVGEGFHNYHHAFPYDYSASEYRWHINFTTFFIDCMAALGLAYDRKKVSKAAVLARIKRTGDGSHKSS
# Experimental: The following method was used to prepare the microsomal Δ-9 fatty acid desaturase from rat liver. Sprague-Dawley rats weighing between 120 and 180 g were fed with Purina laboratory chow, starved for 48 h, then fed with a “Fat-Free” test diet (Nutritional Biochemical Corporation) for 20 h. Livers were removed and placed in cold […] Tris-acetate buffer, pH 8.1, containing 0.25 M sucrose and 1 mM EDTA. The tissue was washed twice with 10 volumes of cold buffer, blotted dry and weighed. The tissue was minced and homogenized in 5 ml of buffer per gram of tissue using a glass homogenizer with a loose fitting Teflon pestle. […]
# Delta-9 Fatty acid desaturase assays were performed by measuring the desaturation of ^14C-palmitoyl-CoA to palmitoleic acid using 0.5 ml reaction mixtures containing 0.1 M potassium phosphate buffer, pH 7.2, 1 mM NADH and 26 μM ^14C-palmitoyl-CoA (0.028 μCi per assay) in 13×100 mm glass culture tubes. […] The upper cyclohexane layer was removed and 100 μI analyzed by HPLC on a Supelcosil LC-18 column (25×4.6 mm) with methanol-water-phosphoric acid (90:9.9:0.1, by volume) as the mobile phase at a flow rate of 1 ml/min. A Packard A120 RAM detector was used to determine the amounts of radioactivity in the palmitic and palmitoleic acid fractions. […] The concentration of compound 1 which inhibited production of palmitoleic acid by 50% was determined from dose-response curves.
# S. cerevisiae [5] = experiment: Growth inhibition of S. cerevisiae by compound 1; type: cell-based; conditions: Saccharomyces cerevisiae, 18 h
# Experimental: as §1
# (§2) S. cerevisiae was grown in SD medium as 5 ml aliquots of cell suspension in 20 ml capacity glass vials as described in example 3 in the absence (controls) and presence of compound 1. Compound 1 was added as 25 μl of solution in DMSO, and controls received 25 ul DMSO alone. After growth for 18 h at 30° C. with shaking at 225 rpm, inhibition of growth by compound 1 was determined as described in example 3, and the fatty acid composition was determined as follows. The cells were centrifuged in 20 ml borosilicate glass culture tubes at 2000 rpm. The supernatant was decanted, and the cells were re-suspended in 10 ml of water and re-centrifuged at 2000 rpm. The supernatant was decanted, and the cells were saponified by heating at 80° C. for 1 hour in 2.5 ml of 10% potassium hydroxide solution in 90% methanol/10% water. The non-saponifiable lipids were removed by extracting the basic solution with 2×3 ml of cyclohexane. The basic solution was then acidified to pH 2 with 6N hydrochloric acid, and the acidic solution was again extracted with 2×3 ml of cyclohexane. These extracts were analyzed directly by capillary gas chromatography using an HP5890 gas chromatograph equipped with a Restek Stabilwax DB capillary column (30m×0.53 mm i.d.×0.25 μm film thickness) and a flame ionization detector. Analyses were run at 225° C. isothermally, and compared to a sample free fatty acid mixture prepared from authentic standards purchased from Sigma.
# S. cerevisiae [6] = experiment: Fatty acid composition of S. cerevisiae after treatment (capillary gas chromatography); type: cell-based, Saccharomyces cerevisiae; conditions: 18 h
# Experimental: as §2
# [7] = microsomal preparation, 26 μM 14C-palmitoyl-CoA, 30° C., 5 min
# T1 sequence (P21147 whole entry, stated change not applied): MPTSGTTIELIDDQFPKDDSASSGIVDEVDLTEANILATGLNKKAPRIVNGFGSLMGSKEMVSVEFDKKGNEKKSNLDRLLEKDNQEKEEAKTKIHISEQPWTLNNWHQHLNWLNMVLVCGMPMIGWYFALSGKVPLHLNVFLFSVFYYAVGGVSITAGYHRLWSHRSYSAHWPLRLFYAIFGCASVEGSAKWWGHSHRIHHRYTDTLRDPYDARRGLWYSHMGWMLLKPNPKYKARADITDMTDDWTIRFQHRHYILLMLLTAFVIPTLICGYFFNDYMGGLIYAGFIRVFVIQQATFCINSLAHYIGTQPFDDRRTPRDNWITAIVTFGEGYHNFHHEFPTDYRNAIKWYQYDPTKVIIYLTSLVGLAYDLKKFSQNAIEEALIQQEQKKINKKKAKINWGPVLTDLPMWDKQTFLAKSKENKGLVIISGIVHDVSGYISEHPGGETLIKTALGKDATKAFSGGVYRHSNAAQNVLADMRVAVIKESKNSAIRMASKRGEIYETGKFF
smiles,measurement,setting,value
"C/C=C/C/C=C/CCC(=O)[C@H]1O[C@H]1C(N)=O [Cerulenin, cerulenin, reference compound]",inhibition at 0.8 ppm,"[1]; read-out: % Inhibition of growth, 0.8 ppm, no fatty acid, 22 h",35.6%
same,inhibition at 0.8 ppm,"[1]; read-out: % Inhibition of growth, 0.8 ppm, oleic acid 10 μM, 22 h",3.3%
same,inhibition at 0.8 ppm,"[1]; read-out: % Inhibition of growth, 0.8 ppm, palmitic acid 10 μM, 22 h",15.2%
same,inhibition at 0.8 ppm,"[1]; read-out: % Inhibition of growth, 0.8 ppm, palmitoleic acid 10 μM, 22 h",4.5%
same,inhibition at 0.8 ppm,"[1]; read-out: % Inhibition of growth, 0.8 ppm, pentadecanoic acid 10 μM, 22 h",20.3%
"CCC#CCn1nc(-c2ccc(Cl)cc2)ccc1=O [Compound 1, 6-(4-chlorophenyl)-2-(2′-pentynyl)pyridazinone]",Inhibition of Candida albicans infection in mice (in words),[2],effective inhibitor
same,% Survival,[2]; 10 mg/kg,20%
same,% Survival,"[2]; 30 mg/kg intraperitoneally 1 h before and 4, 24, 48, 72 h after i.v. inoculation",40%
same,% Survival,"[2]; 100 mg/kg intraperitoneally 1 h before and 4, 24, 48, 72 h after i.v. inoculation",50%
same,Inhibition of fungal Δ-9 fatty acid desaturase (in words),[3],potent inhibitor
same,Yeast desaturase EC50,[3]; [7],0.055 ppm
same,Inhibition of mammalian Δ-9 fatty acid desaturase (in words),[4],does not inhibit
same,Rat liver desaturase EC50,[4]; [7],>100 ppm
same,inhibition at 1.2 ppm,[1]; no fatty acid,76.9%
same,inhibition at 1.2 ppm,[1]; oleic acid 10 μM,18.7%
same,inhibition at 1.2 ppm,[1]; palmitic acid 10 μM,95.5%
same,inhibition at 1.2 ppm,[1]; palmitoleic acid 10 μM,21.8%
same,inhibition at 1.2 ppm,[1]; pentadecanoic acid 10 μM,96.7%
same,inhibition at 0.0625 µg/mL,S. cerevisiae [5]; 0.0625 μg/ml,10.1%
same,inhibition at 0.125 µg/mL,S. cerevisiae [5]; 0.125 μg/ml,14.3%
same,inhibition at 0.25 µg/mL,S. cerevisiae [5]; 0.25 μg/ml,19.1%
same,inhibition at 0.5 µg/mL,S. cerevisiae [5]; 0.5 μg/ml,38.7%
same,inhibition at 1 µg/mL,S. cerevisiae [5]; 1 μg/ml,54.4%
same,inhibition at 2 µg/mL,S. cerevisiae [5]; 2 μg/ml,66.4%
same,oleic acid per milligram dry weight of cells,S. cerevisiae [6]; 0.0625 μg/ml,8.5 µg/mg
same,palmitic acid per milligram dry weight of cells,S. cerevisiae [6]; 0.0625 μg/ml,7.1 µg/mg
same,palmitoleic acid per milligram dry weight of cells,S. cerevisiae [6]; 0.0625 μg/ml,14.2 µg/mg
same,stearic acid per milligram dry weight of cells,S. cerevisiae [6]; 0.0625 μg/ml,2.8 µg/mg
same,oleic acid per milligram dry weight of cells,S. cerevisiae [6]; 0.125 μg/ml,4.3 µg/mg
same,palmitic acid per milligram dry weight of cells,S. cerevisiae [6]; 0.125 μg/ml,6.5 µg/mg
same,palmitoleic acid per milligram dry weight of cells,S. cerevisiae [6]; 0.125 μg/ml,14 µg/mg
same,stearic acid per milligram dry weight of cells,S. cerevisiae [6]; 0.125 μg/ml,3.1 µg/mg
same,oleic acid per milligram dry weight of cells,S. cerevisiae [6]; 0.25 μg/ml,2.7 µg/mg
same,palmitic acid per milligram dry weight of cells,S. cerevisiae [6]; 0.25 μg/ml,6 µg/mg
same,palmitoleic acid per milligram dry weight of cells,S. cerevisiae [6]; 0.25 μg/ml,3 µg/mg
same,stearic acid per milligram dry weight of cells,S. cerevisiae [6]; 0.25 μg/ml,3 µg/mg
same,oleic acid per milligram dry weight of cells,S. cerevisiae [6]; 0.5 μg/ml,1.1 µg/mg
same,palmitic acid per milligram dry weight of cells,S. cerevisiae [6]; 0.5 μg/ml,5.2 µg/mg
same,palmitoleic acid per milligram dry weight of cells,S. cerevisiae [6]; 0.5 μg/ml,1 µg/mg
same,stearic acid per milligram dry weight of cells,S. cerevisiae [6]; 0.5 μg/ml,4.7 µg/mg
same,oleic acid per milligram dry weight of cells,S. cerevisiae [6]; 1 μg/ml,1.2 µg/mg
same,palmitic acid per milligram dry weight of cells,S. cerevisiae [6]; 1 μg/ml,6.7 µg/mg
same,palmitoleic acid per milligram dry weight of cells,S. cerevisiae [6]; 1 μg/ml,0 µg/mg
same,stearic acid per milligram dry weight of cells,S. cerevisiae [6]; 1 μg/ml,5 µg/mg
same,oleic acid per milligram dry weight of cells,S. cerevisiae [6]; 2 μg/ml,0.5 µg/mg
same,palmitic acid per milligram dry weight of cells,S. cerevisiae [6]; 2 μg/ml,5 µg/mg
same,palmitoleic acid per milligram dry weight of cells,S. cerevisiae [6]; 2 μg/ml,0 µg/mg
same,stearic acid per milligram dry weight of cells,S. cerevisiae [6]; 2 μg/ml,4.2 µg/mg
"C[C@@H]1[C@H](O)[C@@H](C)/C=C/C=C/C=C/C=C/C=C/C=C/C=C/[C@H](O[C@@H]2O[C@H](C)[C@@H](O)[C@H](N)[C@@H]2O)C[C@@H]2O[C@](O)(C[C@@H](O)C[C@@H](O)[C@H](O)CC[C@@H](O)C[C@@H](O)CC(=O)O[C@H]1C)C[C@H](O)[C@H]2C(=O)O [Amphotericin B, reference compound]",% Survival,[2]; 10 mg/kg,100%
